Results reported in patent US20230313181A1, “HISTIDINE-LYSINE POLYMERS AND METHODS FOR DELIVERING MRNA USING THE SAME” (UNIVERSITY OF MARYLAND, BALTIMORE, priority 2019, published 2023).
Bridges are numbered along the chain shown (N, C = ends). Roman numbers before positions name the chains, in order. Where no end group is shown, it is not given here.

Tests used:
[1] = Cell viability assay (trypan blue exclusion); format: cell-based; settings: human, MDA-MB-231 cells, HK polymer 4 μg or polyplex (4 μg HK; 1 μg mRNA), then 19 h DMEM/10% FBS
Procedure: Cell Viability Assay. MDA-MB-231 cells were seeded at 5.0×10^4/well in a 24-tissue culture plate and incubated overnight in DMEM supplemented with 10% FBS serum. The media was then changed to Opti-MEM and the cells were treated with either the HK polymer (4 μg) or the HK polyplex (4 μg HK; 1 μg mRNA) for 5 h. After the media was changed to DMEM/10% FBS for 19 h, the cell viability was measured using the trypan blue cell exclusion assay (Trypan Blue solution, 0.4%, Sigma-Aldrich, St. Louis, MO).
After the medium was changed to Opti-MEM in cell cultures of the MDA-MB-231 cells used in the experiment described above, either the HK polymer (4 μg) or the HK polyplex (4 μg HK; 1 μg mRNA) was added dropwise to the cells and incubated for 5 h. The media was then changed to DMEM/10% FBS for 19 h and cell viability was determined using the trypan cell exclusion assay.

[2] = prior studies [34, 35, 45]; cited from earlier work
MDA-MB-231 cells = test: In vitro mRNA transfection with HK polyplexes (luciferase mRNA, luciferase activity); format: cell-based; settings: for RLU/μg-Protein (luciferase activity): mRNA 1 μg, 24 h
Procedure: FIG. 1. Comparison of H3K(+H)4b and H3K4b peptides as carriers of mRNA. To form the HK polyplexes, the mRNA (1 μg) was mixed with 3 different ratios of the HK ([…]) polymer for 30 minutes. The HK polyplexes were then added to the cells for 24 h before the luciferase activity was measured. ****, H3K(+H)4b vs H3K4b, P<0.0001.
In vitro mRNA Transfection. Several HK polymers were examined for their ability to carry a luciferase-expressing mRNA (CleanCap Firefly Luciferase mRNA, Trilink Biotechnologies, Inc, San Diego, CA) into MDA-MB-231 cells (America Type Tissue Culture, Manassas, VA). In brief, 3×10^4 cells were plated into a 24-well plate containing 500 μl of DMEM and 10% fetal bovine serum (ThermoFisher Scientific, Waltham, MA). After 24 h, when the cells were 60 to 80% confluent, the media in each well was changed to Opti-MEM (ThermoFisher Scientific). To prepare HK polyplexes, mRNA (1 μg) in 50 μl of Opti-MEM was briefly mixed well with one of the HK polymers (4 to 12 μg) and maintained at room temperature for 30 min. This polyplex was then added dropwise to the cells. After four h, the Opti-MEM media was removed and replaced with 0.5 ml of DMEM/10% serum (0.5 ml). Twenty-four hours later, the cells were lysed, and the luciferase activity (Promega Corporation, Madison, WI) was measured.
To obtain the data in Table 4, luciferase-expressing mRNA (1 μg) in 50 μl of Opti-MEM was briefly mixed with one of the HK polymers (4, 8, or 12 μg) and maintained at room temperature for 30 min. The resulting polyplexes were added dropwise to the MDA-NM-231 cells and after four h, the Opti-MEM media was removed and replaced with DMEM/10% serum. Twenty-four hours later, the cells were lysed, and the luciferase activity was measured

[3] = Acid-base titration of HK polymer solutions; format: physicochemical; settings: pH titration curves, 5 mg/ml
Procedure: FIG. 2. Titration of different HK peptide solutions. Solutions of polymers (5 mg/ml) (H2K4b, H3K4b, H3K(+H)4b, and H4K4b) were adjusted to pH 3 (initial volume—1 ml) and then […] aliquots of 0.05 N NaOH were stepwise added and the pH measured.
Acid-Base Titration. After polymer solutions (e.g. containing one or more of H2K4b, H3K4b, H3K(+H)4b, and H4K4b) were adjusted to pH 3.0 (5 mg/mil; initial volume—1 mil), aliquots (5 μl) of NaOH (0.05 N) were stepwise added with the pH measured (FiveEasy™ meter; InLab Solids Pro-ISM pH electrode, Mettler Toledo, Columbus, OH). Titration was stopped at about pH 9.0.

Substance: I: KHHHKHHHKHHHHKHHHKKKK-NH2 / II: KHHHKHHHKHHHHKHHHK / III: KHHHKHHHKHHHHKHHHK / IV: KHHHKHHHKHHHHKHHHK (amide I:19-IV:C, I:20-III:C, I:21-II:C) [H3K(+H)4b]
- viability at 5 h [1]: 96.3%
- carrier of siRNA (in words) [2]: effective carriers of siRNA
- luciferase expression, fold greater than with H3K4b (MDA-MB-231 cells; 4:1 ratio (HK:mRNA; wt:wt)): 10 fold
- effectiveness as carrier of mRNA (in words) (MDA-MB-231 cells; luciferase mRNA, HK polyplex): markedly better as a carrier of mRNA
- RLU/μg-Protein (luciferase activity) (MDA-MB-231 cells; ratio mRNA:polymer 1:4 (wt:wt)): 1532.9 ± 122.9 RLU/μg-Protein
- RLU/μg-Protein (luciferase activity) (MDA-MB-231 cells; ratio mRNA:polymer 1:8 (wt:wt)): 1656.3 ± 202.5 RLU/μg-Protein
- RLU/μg-Protein (luciferase activity) (MDA-MB-231 cells; ratio mRNA:polymer 1:12 (wt:wt)): 1033.4 ± 197^ RLU/μg-Protein
- buffering profile / buffering capacity (in words) [3]: minimal differences in their buffering profile
